Data as given in ChEMBL document CHEMBL1201862, “PubChem BioAssay data set” (2004).
Where “and” joins values, the source holds several entries; their conditions need not be identical. Equal entries are not always repeated.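 Dose response: 5 concentrations. Exposure: 48 h. Format: 96-well plates. Endpoint: linear interpolation; highest concentration if not reached. At the GI50, growth is halved.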 Calls of active or inactive are those of the source. No stated cut-off is given here; in the data, active = GI50 up to about 1.1 µM and inactive = higher.

Columns and labels:
Assay in all cases: NCI tumour cell line growth inhibition, 48 h
HL-60 = system: HL-60
HOP-62 = system: HOP-62
SK-MEL-28 = system: SK-MEL-28
NCI-H226 = system: NCI-H226
HCT-116 = system: HCT-116
HT-29 = system: HT-29
M14 = system: M14
UO-31 = system: UO-31
NCI-H23 = system: NCI-H23
NCI-H522 = system: NCI-H522
OVCAR-5 = system: OVCAR-5
Malme-3M = system: Malme-3M
DMS-114 = system: DMS-114
UACC-257 = system: UACC-257
SF-268 = system: SF-268
786-0 = system: 786-0
A549 = system: A549
EKVX = system: EKVX
ACHN = system: ACHN
DMS-273 = system: DMS-273

Compound	GI50 (HL-60)	GI50 (HOP-62)	GI50 (SK-MEL-28)	GI50 (NCI-H226)	GI50 (HCT-116)	GI50 (HT-29)	GI50 (M14)	GI50 (UO-31)	GI50 (NCI-H23)	GI50 (NCI-H522)	GI50 (OVCAR-5)	GI50 (Malme-3M)	GI50 (DMS-114)	GI50 (UACC-257)	GI50 (SF-268)	GI50 (786-0)	GI50 (A549)	GI50 (EKVX)	GI50 (ACHN)	GI50 (DMS-273)
CN(C)C(=S)/N=C1\SC(=N\c2ccccc2)/C(=N/c2ccccc2)N1c1ccc([N+](=O)[O-])cc1	> 100 µM (inactive)	> 100 µM (inactive)	> 100 µM (inactive)	> 100 µM (inactive)	> 100 µM (inactive)	> 100 µM (inactive)	> 100 µM (inactive)	> 100 µM (inactive)	> 100 µM (inactive)	> 100 µM (inactive)	> 100 µM (inactive)	> 100 µM (inactive)								
CN(C)C(=S)/N=c1\ss/c(=N\C(=S)N(C)C)n1C1CCCCC1	69 µM (inactive)	> 100 µM (inactive)	> 100 µM (inactive)	> 100 µM (inactive)	> 100 µM (inactive)	0.458 µM (active)	> 100 µM (inactive)	> 100 µM (inactive)	63.2 µM (inactive)	25.5 µM (inactive)	> 100 µM (inactive)	> 100 µM (inactive)	0.452 µM (active)	> 100 µM (inactive)	44.9 µM (inactive)	> 100 µM (inactive)	> 100 µM (inactive)	> 100 µM (inactive)	> 100 µM (inactive)	
CC1(C)O[C@H](C(=O)O)[C@@H](C(=O)O)O1		> 100 µM (inactive)	> 100 µM (inactive)	> 100 µM (inactive)	> 100 µM (inactive)	> 100 µM (inactive)	> 100 µM (inactive)			> 100 µM (inactive)	> 100 µM (inactive)	> 100 µM (inactive)		> 100 µM (inactive)	> 100 µM (inactive)	> 100 µM (inactive)	> 100 µM (inactive)	> 100 µM (inactive)	> 100 µM (inactive)	
N#CC1(C#N)C2CCCCC23OC(=N)C1(C#N)C(c1ccccc1)O3 (configuration not stated)			> 10 µM (inactive)	> 100 µM (inactive)	17 µM (inactive)	18.2 µM (inactive)	12.7 µM (inactive)	34.8 µM (inactive)	30.5 µM (inactive)		21.2 µM (inactive)	17 µM (inactive)		18 µM (inactive)	2.49 µM (inactive)	14.6 µM (inactive)	> 100 µM (inactive)	23.5 µM (inactive)	36.1 µM (inactive)	
Cn1c2c(c3ccccc31)CCN(CCCN1CCN(c3ccccc3)CC1)C2=O	13.5 µM (inactive)		18.1 µM (inactive)		16.1 µM (inactive)	13.8 µM (inactive)	16.4 µM (inactive)	14.7 µM (inactive)	20.5 µM (inactive)	14.3 µM (inactive)			16.9 µM (inactive)		25.7 µM (inactive)	19.5 µM (inactive)	23.6 µM (inactive)	26.7 µM (inactive)	21.6 µM (inactive)	21.5 µM (inactive)
NC(CSC(=O)c1ccccc1)C(=O)O (configuration not stated)	> 100 µM (inactive)	> 100 µM (inactive)	> 100 µM (inactive)	> 100 µM (inactive)	> 100 µM (inactive)	> 100 µM (inactive)	> 100 µM (inactive)	> 100 µM (inactive)	> 100 µM (inactive)	> 100 µM (inactive)	> 100 µM (inactive)	> 100 µM (inactive)		> 100 µM (inactive)	> 100 µM (inactive)	> 100 µM (inactive)	> 100 µM (inactive)	> 100 µM (inactive)	> 100 µM (inactive)	
CN1CCN(C(=S)N(C(=O)c2ccc(Cl)cc2)C2CCCCC2)CC1	61.7 µM (inactive)		> 100 µM (inactive)	> 100 µM (inactive)		> 100 µM (inactive)	> 100 µM (inactive)	> 100 µM (inactive)	> 100 µM (inactive)	> 100 µM (inactive)	> 100 µM (inactive)	> 100 µM (inactive)		> 100 µM (inactive)	> 100 µM (inactive)	> 100 µM (inactive)	> 100 µM (inactive)		> 100 µM (inactive)	
C=C1CCCC2[C@](C)(CC3=C(O)C(=O)C=C(OC)C3=O)[C@@H](C)CC[C@]12C (some centres not stated)	2.4 µM (inactive)		3.99 µM (inactive)		3.71 µM (inactive)	10.9 µM (inactive)	1.81 µM (inactive)		3.05 µM (inactive)	6.82 µM (inactive)		2.9 µM (inactive)	1.99 µM (inactive)	3.3 µM (inactive)	4.31 µM (inactive)	2.64 µM (inactive)	2.86 µM (inactive)	6.28 µM (inactive)	4.06 µM (inactive)	
CC#CC#C/C=C1\C=CC2(OC=CC2OC(C)=O)O1 (configuration not stated)	20.2 µM (inactive) and 10.4 µM (inactive)	> 100 µM (inactive)				16.1 µM (inactive) and 22.4 µM (inactive)	29.8 µM (inactive) and 18.4 µM (inactive)	15.5 µM (inactive) and 18.4 µM (inactive)	15 µM (inactive) and 11 µM (inactive)			24.8 µM (inactive) and 26.4 µM (inactive)	18.2 µM (inactive)		23.7 µM (inactive) and 19.4 µM (inactive)		35.2 µM (inactive) and 32.7 µM (inactive)	29.9 µM (inactive) and > 40 µM (inactive)	10.4 µM (inactive)	20.1 µM (inactive)
